One assay addresses T1, Androgen receptor (Rattus norvegicus, UniProt P15207).
T1 sequence (P15207 whole entry): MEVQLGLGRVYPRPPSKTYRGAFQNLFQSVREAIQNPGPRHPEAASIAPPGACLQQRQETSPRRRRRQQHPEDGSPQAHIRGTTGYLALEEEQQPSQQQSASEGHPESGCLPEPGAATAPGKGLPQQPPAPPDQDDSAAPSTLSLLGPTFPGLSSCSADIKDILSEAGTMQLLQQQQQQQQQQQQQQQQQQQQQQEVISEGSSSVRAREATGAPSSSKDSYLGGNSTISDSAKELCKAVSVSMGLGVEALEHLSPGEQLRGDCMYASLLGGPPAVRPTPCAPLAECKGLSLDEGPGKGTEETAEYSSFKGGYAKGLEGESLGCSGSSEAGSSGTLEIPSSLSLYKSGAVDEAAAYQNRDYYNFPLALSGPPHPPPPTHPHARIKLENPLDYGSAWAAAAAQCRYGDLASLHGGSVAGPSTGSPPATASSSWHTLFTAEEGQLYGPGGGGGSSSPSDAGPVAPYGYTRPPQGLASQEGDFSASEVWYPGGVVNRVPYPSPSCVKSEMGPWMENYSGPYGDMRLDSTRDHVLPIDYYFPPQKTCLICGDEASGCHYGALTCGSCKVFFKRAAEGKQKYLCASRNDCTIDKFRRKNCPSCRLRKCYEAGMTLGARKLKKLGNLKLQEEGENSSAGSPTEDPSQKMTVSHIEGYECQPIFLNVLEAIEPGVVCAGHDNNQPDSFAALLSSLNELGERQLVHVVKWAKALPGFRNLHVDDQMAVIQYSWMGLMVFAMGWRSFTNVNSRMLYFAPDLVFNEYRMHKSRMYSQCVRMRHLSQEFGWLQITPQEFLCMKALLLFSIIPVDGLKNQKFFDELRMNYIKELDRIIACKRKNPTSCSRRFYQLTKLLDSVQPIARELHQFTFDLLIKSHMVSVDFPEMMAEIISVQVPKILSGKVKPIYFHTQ
Type of assay: functional.

In assay [1] the target is Muscarinic acetylcholine receptor M3 (Homo sapiens, UniProt P20309).
Sequence of Muscarinic acetylcholine receptor M3 (P20309 whole entry): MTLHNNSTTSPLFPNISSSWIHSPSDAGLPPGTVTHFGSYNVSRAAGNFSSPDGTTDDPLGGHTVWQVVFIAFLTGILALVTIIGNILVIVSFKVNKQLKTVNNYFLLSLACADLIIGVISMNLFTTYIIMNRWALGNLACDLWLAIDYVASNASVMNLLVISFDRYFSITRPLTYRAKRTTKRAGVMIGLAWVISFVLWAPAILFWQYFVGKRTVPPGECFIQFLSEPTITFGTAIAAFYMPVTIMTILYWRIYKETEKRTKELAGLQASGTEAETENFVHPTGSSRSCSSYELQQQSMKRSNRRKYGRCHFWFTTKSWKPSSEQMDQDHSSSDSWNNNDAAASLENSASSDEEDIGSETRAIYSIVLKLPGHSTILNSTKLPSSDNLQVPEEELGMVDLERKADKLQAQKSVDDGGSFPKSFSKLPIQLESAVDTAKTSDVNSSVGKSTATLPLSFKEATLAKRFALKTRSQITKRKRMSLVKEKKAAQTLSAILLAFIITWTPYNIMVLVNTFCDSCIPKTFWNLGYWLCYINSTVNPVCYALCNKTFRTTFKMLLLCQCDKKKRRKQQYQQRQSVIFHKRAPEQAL
Another assay deals with Histamine H1 receptor (Homo sapiens, UniProt P35367).
Sequence of Histamine H1 receptor (P35367 whole entry): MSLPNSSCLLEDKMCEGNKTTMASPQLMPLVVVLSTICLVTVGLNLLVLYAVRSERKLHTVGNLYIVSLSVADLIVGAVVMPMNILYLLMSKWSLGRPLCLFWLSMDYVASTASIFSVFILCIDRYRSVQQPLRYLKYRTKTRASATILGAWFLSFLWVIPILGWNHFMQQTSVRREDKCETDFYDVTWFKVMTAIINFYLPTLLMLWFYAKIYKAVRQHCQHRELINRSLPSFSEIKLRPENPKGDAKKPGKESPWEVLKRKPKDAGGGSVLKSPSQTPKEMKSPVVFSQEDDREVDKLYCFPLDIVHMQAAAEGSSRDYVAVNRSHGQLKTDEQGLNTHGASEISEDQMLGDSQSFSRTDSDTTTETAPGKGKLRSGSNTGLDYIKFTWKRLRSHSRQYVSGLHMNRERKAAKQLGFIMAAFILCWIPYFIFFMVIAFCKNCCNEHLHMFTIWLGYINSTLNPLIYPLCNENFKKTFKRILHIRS
For the next assay, the target named is T2, Estrogen receptor (Homo sapiens, UniProt P03372).
T2 sequence (P03372 whole entry): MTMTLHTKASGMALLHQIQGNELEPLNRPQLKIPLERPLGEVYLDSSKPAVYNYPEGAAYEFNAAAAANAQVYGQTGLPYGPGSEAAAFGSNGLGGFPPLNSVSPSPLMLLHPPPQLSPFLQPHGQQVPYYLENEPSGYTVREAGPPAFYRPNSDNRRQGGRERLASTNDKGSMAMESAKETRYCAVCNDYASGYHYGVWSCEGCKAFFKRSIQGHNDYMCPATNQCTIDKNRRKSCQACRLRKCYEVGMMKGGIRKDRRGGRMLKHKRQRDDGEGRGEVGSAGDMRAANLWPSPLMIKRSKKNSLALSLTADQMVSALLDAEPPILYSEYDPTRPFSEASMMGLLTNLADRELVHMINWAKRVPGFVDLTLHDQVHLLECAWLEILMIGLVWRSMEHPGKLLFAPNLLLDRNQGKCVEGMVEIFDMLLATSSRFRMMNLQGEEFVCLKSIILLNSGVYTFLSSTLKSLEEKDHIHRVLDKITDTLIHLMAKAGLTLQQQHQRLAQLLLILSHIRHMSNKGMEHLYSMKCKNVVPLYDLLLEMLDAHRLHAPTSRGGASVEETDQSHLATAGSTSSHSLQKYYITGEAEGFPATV

In assay [2] the target is 5-hydroxytryptamine receptor 2B (Homo sapiens, UniProt P41595).
Sequence of 5-hydroxytryptamine receptor 2B (P41595 whole entry): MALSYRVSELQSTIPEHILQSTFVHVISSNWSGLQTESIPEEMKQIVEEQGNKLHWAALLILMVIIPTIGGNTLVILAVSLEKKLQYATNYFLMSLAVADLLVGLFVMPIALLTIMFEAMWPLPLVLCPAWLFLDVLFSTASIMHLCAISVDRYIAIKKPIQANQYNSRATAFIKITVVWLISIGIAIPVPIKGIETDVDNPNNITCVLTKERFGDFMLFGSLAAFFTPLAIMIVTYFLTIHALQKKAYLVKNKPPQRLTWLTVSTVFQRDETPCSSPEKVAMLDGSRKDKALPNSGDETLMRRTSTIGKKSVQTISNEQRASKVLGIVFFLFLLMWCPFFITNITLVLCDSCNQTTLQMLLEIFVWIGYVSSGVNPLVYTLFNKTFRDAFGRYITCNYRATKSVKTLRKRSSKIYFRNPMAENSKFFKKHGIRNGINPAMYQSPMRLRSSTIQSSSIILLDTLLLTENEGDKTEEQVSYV
The target in assay [3] is T3, Corticotropin-releasing factor receptor 1 (Homo sapiens, UniProt P34998).
T3 sequence (P34998 whole entry): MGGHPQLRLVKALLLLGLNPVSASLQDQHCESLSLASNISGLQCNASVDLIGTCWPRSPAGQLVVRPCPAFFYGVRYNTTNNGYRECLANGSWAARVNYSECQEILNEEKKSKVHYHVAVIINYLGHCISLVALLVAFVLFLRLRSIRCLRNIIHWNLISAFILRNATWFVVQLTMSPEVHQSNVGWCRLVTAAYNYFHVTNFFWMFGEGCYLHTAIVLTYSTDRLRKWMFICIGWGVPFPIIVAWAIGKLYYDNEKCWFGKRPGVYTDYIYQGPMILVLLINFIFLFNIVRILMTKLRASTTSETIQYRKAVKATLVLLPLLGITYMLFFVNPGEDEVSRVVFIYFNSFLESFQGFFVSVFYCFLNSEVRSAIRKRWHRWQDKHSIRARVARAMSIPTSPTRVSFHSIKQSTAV

The target of assay [4] is T4, Corticotropin-releasing factor receptor 2 (Homo sapiens, UniProt Q13324).
T4 sequence (Q13324 whole entry): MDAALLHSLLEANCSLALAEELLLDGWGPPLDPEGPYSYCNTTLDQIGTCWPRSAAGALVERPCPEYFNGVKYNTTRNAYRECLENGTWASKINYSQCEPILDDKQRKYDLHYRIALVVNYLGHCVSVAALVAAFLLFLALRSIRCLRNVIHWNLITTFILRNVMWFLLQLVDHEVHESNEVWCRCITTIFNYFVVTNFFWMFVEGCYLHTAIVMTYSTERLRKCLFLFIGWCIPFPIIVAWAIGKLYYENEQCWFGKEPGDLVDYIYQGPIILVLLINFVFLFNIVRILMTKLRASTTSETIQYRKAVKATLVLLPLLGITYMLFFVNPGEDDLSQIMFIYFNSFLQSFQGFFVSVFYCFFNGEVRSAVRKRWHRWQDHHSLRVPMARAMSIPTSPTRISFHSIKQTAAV
Further: assay procedure not described here.

Consider `CC(=N)N1CC[C@H](SC2=C(C(=O)O)N3C(=O)[C@H]([C@@H](C)O)[C@H]3C2)C1`, for which the figures for the AC50 (on Androgen receptor; in assay [1]; on Histamine H1 receptor) were greater than 300 µM, 290 µM and greater than 300 µM, respectively.
In the case of `CC(/C=C1\SC(=S)N(CC(=O)O)C1=O)=C\c1ccccc1`, the AC50 (commonly the concentration giving half of the maximal activity seen) at Estrogen receptor was greater than 30 µM.
Take `O=C1CN2Cc3c(ccc(Cl)c3Cl)N=C2N1` [ANAGRELIDE]: the figures for the AC50 (in assay [1]; at Estrogen receptor; at Histamine H1 receptor) were greater than 10 µM, greater than 30 µM and greater than 10 µM, respectively.
On to `CNCC[C@@H](Oc1ccccc1C)c1ccccc1` [ATOMOXETINE], for which the concentration at half-maximal activity (AC50) (at Androgen receptor; in assay [1]; on Estrogen receptor) was greater than 30 µM in each case.
Take `CCc1oc2ccccc2c1C(=O)c1cc(Br)c(O)c(Br)c1` [BENZBROMARONE]: the AC50 at Androgen receptor and on Estrogen receptor was greater than 30 µM in each case.
With `C=C(C)[C@@H]1CCC(C)=C[C@H]1c1c(O)cc(CCCCC)cc1O` [CANNABIDIOL], the AC50 (at Androgen receptor; in assay [1]; on Histamine H1 receptor) was greater than 30 µM in each case.
As for `CO/N=C(\C(=O)N[C@@H]1C(=O)N2C(C(=O)O)=C(COC(N)=O)CS[C@H]12)c1ccco1` [CEFUROXIME], the AC50 (in assay [1]; on Histamine H1 receptor) was greater than 30 µM each time.
Regarding `[H]/N=C(\N/C(=N/[H])NCCCCCCNC(=N)NC(=N)Nc1ccc(Cl)cc1)Nc1ccc(Cl)cc1` [CHLORHEXIDINE], the half-maximal activity concentration (AC50) is 7.8 µM in assay [1], greater than 30 µM at Estrogen receptor, greater than 10 µM at Histamine H1 receptor and 683 nM in assay [2].
For the compound `Clc1cccc(Cl)c1N=C1NCCN1` [CLONIDINE], the concentration at half-maximal activity (AC50) in assay [3] was greater than 30 µM; in assay [4], greater than 30 µM; in assay [2], greater than 10000 nM.
`CNCC[C@H](Oc1cccc2ccccc12)c1cccs1` [DULOXETINE]: the half-maximal activity concentration (AC50) in assay [1] was greater than 30 µM; on Histamine H1 receptor it was 8.8 µM.
In the case of `C#Cc1cccc(Nc2ncnc3cc(OCCOC)c(OCCOC)cc23)c1` [ERLOTINIB], the AC50 (in assay [1]; at Histamine H1 receptor) was greater than 30 µM throughout.
With `CCC(=O)O[C@@H](O[P@](=O)(CCCCc1ccccc1)CC(=O)N1C[C@H](C2CCCCC2)C[C@H]1C(=O)O)C(C)C` [FOSINOPRIL], the half-maximal activity concentration (AC50) (in assay [1]; at Histamine H1 receptor) was greater than 30 µM each time.
On to `Nc1nc(O)c2ncn(COC(CO)CO)c2n1` [GANCICLOVIR], for which the AC50 on Estrogen receptor is greater than 30 µM.
In the case of `C[C@H]1Oc2cc(cnc2N)-c2c(nn(C)c2C#N)CN(C)C(=O)c2ccc(F)cc21` [LORLATINIB], the half-maximal activity concentration (AC50) (at Androgen receptor; in assay [1]; on Histamine H1 receptor) was greater than 30 µM in each case.
As to `CC(=O)/N=c1/sc(S(N)(=O)=O)nn1C` [METHAZOLAMIDE], the results for the AC50 (in assay [1]; at Estrogen receptor; on Histamine H1 receptor) were greater than 30 µM, greater than 10 µM and greater than 10 µM, respectively.
For the compound `CC[C@@H](CO)NC(=O)[C@@H]1C=C2c3cccc4[nH]cc(c34)C[C@H]2N(C)C1` [METHYLERGONOVINE], the figures for the AC50 (on Androgen receptor; on Estrogen receptor; in assay [2]) were 18 µM, greater than 30 µM and 3.7 nM, respectively.
As to `CC(=O)Oc1ccccc1C(=O)Nc1ncc([N+](=O)[O-])s1` [NITAZOXANIDE], the half-maximal activity concentration (AC50) was 13 µM in assay [1], greater than 30 µM at Estrogen receptor and greater than 30 µM at Histamine H1 receptor.
The compound `CNCCC=C1c2ccccc2CCc2ccccc21` [NORTRIPTYLINE] registered an AC50 on Estrogen receptor greater than 30 µM.
`CN(C)c1cc(CNCC(C)(C)C)c(O)c2c1C[C@H]1C[C@H]3[C@H](N(C)C)C(O)=C(C(N)=O)C(=O)[C@@]3(O)C(O)=C1C2=O` [OMADACYCLINE]: the AC50 (on Androgen receptor; in assay [1]; at Estrogen receptor; at Histamine H1 receptor) was greater than 30 µM each time.
As for `COc1ccc(Cc2nccc3cc(OC)c(OC)cc23)cc1OC` [PAPAVERINE], on Androgen receptor, the AC50 was greater than 30 µM.
For the compound `CNC[C@H](O)c1cccc(O)c1` [PHENYLEPHRINE], the AC50 was greater than 30 µM in assay [1]; greater than 30 µM in assay [3]; greater than 30 µM in assay [4]; greater than 10 µM on Histamine H1 receptor; greater than 10000 nM in assay [2].
Consider `O=C1NC(=O)C(c2ccccc2)(c2ccccc2)N1` [PHENYTOIN], for which the concentration at half-maximal activity (AC50) in assay [3] and in assay [4] was greater than 30 µM each time.
As to `CC(C)C[C@H](CN)CC(=O)O` [PREGABALIN], the half-maximal activity concentration (AC50) (in assay [1]; in assay [3]; in assay [4]; on Estrogen receptor; at Histamine H1 receptor) was greater than 30 µM throughout.
For `CNC(=O)c1cc(Oc2ccc(NC(=O)Nc3ccc(Cl)c(C(F)(F)F)c3)c(F)c2)ccn1` [REGORAFENIB], the concentration at half-maximal activity (AC50) on Androgen receptor and at Histamine H1 receptor was greater than 30 µM in each case.
Regarding `CCOc1cc(CC(=O)N[C@@H](CC(C)C)c2ccccc2N2CCCCC2)ccc1C(=O)O` [REPAGLINIDE], the AC50 (at Androgen receptor; in assay [1]; at Histamine H1 receptor) was greater than 30 µM throughout.
Take `O=C(Nc1c(Cl)cncc1Cl)c1ccc(OC(F)F)c(OCC2CC2)c1` [ROFLUMILAST]: the AC50 (on Androgen receptor; in assay [1]; on Estrogen receptor; on Histamine H1 receptor) was greater than 30 µM throughout.
Take `CCCN(CCC)CCc1cccc2c1CC(=O)N2` [ROPINIROLE]: the half-maximal activity concentration (AC50) in assay [1] was greater than 30 µM; in assay [3], greater than 30 µM; in assay [4], greater than 30 µM; at Histamine H1 receptor it was 14 µM; in assay [2], 27000 nM.
With `CCCN(CCc1cccs1)[C@H]1CCc2c(O)cccc2C1` [ROTIGOTINE], the AC50 (at Androgen receptor; in assay [1]) was greater than 30 µM each time.
Regarding `CC(C)N(CCCCOCC(=O)NS(C)(=O)=O)c1cnc(-c2ccccc2)c(-c2ccccc2)n1` [SELEXIPAG], the AC50 (at Androgen receptor; in assay [1]; on Estrogen receptor; at Histamine H1 receptor) was greater than 30 µM throughout.
Consider `CCCCNc1ccc(C(=O)OCCN(C)C)cc1` [TETRACAINE], for which the concentration at half-maximal activity (AC50) in assay [3] is greater than 30 µM; in assay [4] it was greater than 30 µM; in assay [2] it was 1420 nM.
As for `Cn1c(=O)c2[nH]cnc2n(C)c1=O` [THEOPHYLLINE], the half-maximal activity concentration (AC50) in assay [3] and in assay [4] was greater than 30 µM each time.
In the case of `CN1CCN(CCCN2c3ccccc3Sc3ccc(S(=O)(=O)N(C)C)cc32)CC1` [THIOPROPERAZINE], the AC50 was 18 µM in assay [1] and 0.33 µM at Histamine H1 receptor.
In the same order, the values of `Cc1cc(CC(=O)O)n(C)c1C(=O)c1ccc(Cl)cc1` [ZOMEPIRAC] are greater than 30 µM and greater than 30 µM.

Source of the values: ChEMBL document CHEMBL5291721, “A preclinical secondary pharmacology resource illuminates target-adverse drug reaction associations of marketed drugs” (Nat Commun, 2023).
